Measured values from patent US20230095926A1, “PARASITE CONTROL IN RUMINANTS” (Intervet Inc., priority 2019, published 2023).

Legend:
[1] = system: sheep body lice (Bovicola ovis), benzoyl phenyl urea (IGR) resistant; assay: Efficacy long wool lice study, single subcutaneous injection, Merino ewes with 7 months wool growth; settings: for Geometric efficacy (%) Day 7 / Geometric efficacy (%) Day 14 / Geometric efficacy (%) Day 21 / Geometric efficacy (%) Day 42 / Geometric efficacy (%) Day 84 / Geometric efficacy (%) Day 140: long wool sheep, Henderson-Tilton
[2] = system: sheep body lice (Bovicola ovis); assay: Persistency determination, lice challenge of treated lice free Merino sheep with 5 months wool growth; assay type: in vivo; settings: 3.0 mg/kg s.c., Day 21-28 challenge, counts 7, 14, 21, 42 and 84 days post-challenge
Protocol: In this study the persistent efficacy of fluralaner when administered once subcutaneously at doses of 1.0, 2.0 and 3.0 mg/kg body weight against sheep body lice (Bovicola ovis) infestation on Merino sheep with 5 months wool growth was evaluated.
Fluralaner was administered to sheep in three groups each at 1.0, 2.0 and 3.0 mg fluralaner/kg bodyweight. The dose was administered subcutaneously. Three groups were left untreated as negative control groups.
From Day 21-28, 49-56 and Day 77-84 post-treatment one group of untreated negative control sheep and one group of sheep treated at 1.0, 2.0 and 3.0 mg/kg were challenged with lice by close confinement with lice infested sheep and manual transfer of lice. Following the challenges lice counts were conducted 7, 14, 21, 42 and 84 days±1-day post-challenge (not all counts conducted for all challenges).

[3] = system: sheep body lice (Bovicola ovis), diazinon resistant; assay: Long wool lice efficacy study, single subcutaneous dose, Merino sheep with 3 months wool growth; assay type: in vivo
Protocol: In this study the efficacy of fluralaner when administered once subcutaneously at doses of 1 and 2 mg/kg body weight against sheep body lice (Bovicola ovis) infestation on Merino sheep with 3 months wool growth was evaluated.
Fluralaner was administered to sheep in Groups 2 and 3 on Day 0 at 1 and 2 mg fluralaner/kg bodyweight respectively. Group 1 was left untreated as a negative control.
Pre-treatment lice counts were conducted on Day −1 and used to allocate sheep to treatment groups. Post-treatment lice counts were conducted 7, 14, 21, 42, 84 and 140 days±1-day post-treatment. Lice counts were performed as discussed in Example 1.

[4] = system: sheep body lice (Bovicola ovis), diazinon resistant; assay: Off-shears/short wool lice efficacy study, single subcutaneous dose, Merino sheep; assay type: in vivo; settings: for Sheep Body Lice Efficacy Based on Geometric Means Day 7: Day 7 post-treatment; for Sheep Body Lice Efficacy Based on Geometric Means Day 14: Day 14 post-treatment; for Sheep Body Lice Efficacy Based on Geometric Means Day 21: Day 21 post-treatment; for Sheep Body Lice Efficacy Based on Geometric Means Day 41/42: Day 41/42 post-treatment; for Sheep Body Lice Efficacy Based on Geometric Means Day 84: Day 84 post-treatment; for Sheep Body Lice Efficacy Based on Geometric Means Day 140: Day 140 post-treatment
Protocol: In this study the efficacy of fluralaner when administered once subcutaneously at doses of 1 and 2 mg/kg body weight within 1 week prior to shearing, within 24 hours after shearing and 6 weeks after shearing against sheep body lice (Bovicola ovis) infestation on Merino sheep was evaluated.
Fluralaner was administered to sheep in Groups 2 and 3 seven days pre-shearing, Groups 4 and 5 within 24 hours after shearing and Groups 6 and 7 forty-two days post-shearing at either 1 mg/kg (Group 2, 4 and 6) or 2 mg/kg (Group 3, 5 and 7). Group 1 was left untreated as a negative control. All sheep were shorn on Day 0.
Lice counts were conducted on all sheep on Day −8 to −7 for allocation. Pre-treatment lice counts were conducted on Groups 2 and 3 on Day −8 to −7 (i.e. allocation counts), on Group 4 and 5 on Day −1 (pre-shearing) and on Group 6 and 7 on Day 41 (post-shearing). Post-treatment lice counts were conducted 7, 14, 21, 42, 84 and 140 days±1-day post-treatment. Group 1 was counted on each day that a lice count was conducted on a treated group for comparison purposes. Lice counts were performed as described in Example 1.

[5] = system: biting/chewing lice (Bovicola bovis); assay: Biting lice efficacy study in cattle, natural infestation, single subcutaneous injection; assay type: in vivo; settings: 1 mg/kg s.c.
Protocol: This study determined the efficacy (via reductions in total lice counts) of fluralaner in an injectable suspension formulation against natural infestations of cattle sucking (Haematopinus eurysternus, Linognathus vituli) and biting/chewing lice (Bovicola bovis) when applied at a single dose to young, lice infested cattle. Treatment efficacy was determined by whole body lice counts post treatment and comparison of treated and untreated (placebo) group mean lice counts. The naturally acquired louse infestations consisted of 2 species of sucking lice (Haematopinus eurysternus and Linognathus vituli) and the biting louse Bovicola bovis. Each animal was examined in a cattle crush prior to being selected from the parent mob to ensure that more than 30 sucking lice (combined total of both sucking lice species) were present. Fluralaner at a dose level of 1.0 mg/kg bw and Control Product were administered to cattle by subcutaneous injection. The numbers of live adults and live nymphs for each species of lice on each animal were counted at 7-day intervals starting with pre-treatment counts on Day −1 and post-treatment on Days 7, 14, 21, 28, 35, 42, 49 and 56.

[6] = 1 mg/kg s.c., treated 7 days pre-shearing
[7] = 1 mg/kg s.c., treated 42 days post-shearing
[8] = 1 mg/kg s.c., treated within 24 hours after shearing
[9] = 2 mg/kg s.c., treated 7 days pre-shearing
[10] = 2 mg/kg s.c., treated 42 days post-shearing
[11] = 2 mg/kg s.c., treated within 24 hours after shearing

Cc1cc(C2=NOC(c3cc(Cl)cc(Cl)c3)(C(F)(F)F)C2)ccc1C(=O)NCC(=O)NCC(F)(F)F (stereo not drawn) [Fluralaner, 4-[5-(3,5-dichlorophenyl)-5-trifluoromethyl-4,5-dihydroisoxazol-3-yl]-2-methyl-N-[(2,2,2-trifluoro-ethylcarbamoyl)-methyl]-benzamide]
Geometric efficacy (%) Day 7 ([1]; 1.0 mg/kg s.c. once): 99.4%
Geometric efficacy (%) Day 14 ([1]; 1.0 mg/kg s.c. once): 99.9%
Geometric efficacy (%) Day 21 ([1]; 1.0 mg/kg s.c. once): 100.0%
Geometric efficacy (%) Day 42 ([1]; 1.0 mg/kg s.c. once): 100.0%
Geometric efficacy (%) Day 84 ([1]; 1.0 mg/kg s.c. once): 100.0%
Geometric efficacy (%) Day 140 ([1]; 1.0 mg/kg s.c. once): 100.0%
Geometric efficacy (%) Day 7 ([1]; 2.0 mg/kg s.c. once): 99.6%
Geometric efficacy (%) Day 14 ([1]; 2.0 mg/kg s.c. once): 100.0%
Geometric efficacy (%) Day 21 ([1]; 2.0 mg/kg s.c. once): 100.0%
Geometric efficacy (%) Day 42 ([1]; 2.0 mg/kg s.c. once): 100.0%
Geometric efficacy (%) Day 84 ([1]; 2.0 mg/kg s.c. once): 100.0%
Geometric efficacy (%) Day 140 ([1]; 2.0 mg/kg s.c. once): 100.0%
Geometric efficacy (%) Day 7 ([1]; 3.0 mg/kg s.c. once): 99.6%
Geometric efficacy (%) Day 14 ([1]; 3.0 mg/kg s.c. once): 100.0%
Geometric efficacy (%) Day 21 ([1]; 3.0 mg/kg s.c. once): 100.0%
Geometric efficacy (%) Day 42 ([1]; 3.0 mg/kg s.c. once): 100.0%
Geometric efficacy (%) Day 84 ([1]; 3.0 mg/kg s.c. once): 100.0%
Geometric efficacy (%) Day 140 ([1]; 3.0 mg/kg s.c. once): 100.0%
treatment related adverse events or health problems ([1]; sheep, 1, 2 and 3 mg/kg s.c., throughout the duration of the trial): No treatment related adverse events or health problems occurred
lice or viable lice eggs found after challenge [2]: No lice or viable lice eggs were found
time until activity reached the required level ([3]; 1.0 mg/kg dose rate): ≤ 42 days post-treatment
Sheep Body Lice Efficacy Based on Geometric Means Day 7 ([3]; 1 mg/kg s.c.): 81.8%
Sheep Body Lice Efficacy Based on Geometric Means Day 14 ([3]; 1 mg/kg s.c.): 97.2%
Sheep Body Lice Efficacy Based on Geometric Means Day 21 ([3]; 1 mg/kg s.c.): 99.6%
Sheep Body Lice Efficacy Based on Geometric Means Day 42 ([3]; 1 mg/kg s.c.): 100.0%
Sheep Body Lice Efficacy Based on Geometric Means Day 84 ([3]; 1 mg/kg s.c.): 100.0%
Sheep Body Lice Efficacy Based on Geometric Means Day 140 ([3]; 1 mg/kg s.c.): 100.0%
time until efficacy reached the required level ([3]; 2.0 mg/kg dose rate): ≤ 14 days post-treatment
Sheep Body Lice Efficacy Based on Geometric Means Day 7 ([3]; 2 mg/kg s.c.): 95.2%
Sheep Body Lice Efficacy Based on Geometric Means Day 14 ([3]; 2 mg/kg s.c.): 100.0%
Sheep Body Lice Efficacy Based on Geometric Means Day 21 ([3]; 2 mg/kg s.c.): 100.0%
Sheep Body Lice Efficacy Based on Geometric Means Day 42 ([3]; 2 mg/kg s.c.): 100.0%
Sheep Body Lice Efficacy Based on Geometric Means Day 84 ([3]; 2 mg/kg s.c.): 100.0%
Sheep Body Lice Efficacy Based on Geometric Means Day 140 ([3]; 2 mg/kg s.c.): 100.0%
Sheep Body Lice Efficacy Based on Geometric Means Day 7 [4, 6]: 93.9%
Sheep Body Lice Efficacy Based on Geometric Means Day 14 [4, 6]: 97.7%
Sheep Body Lice Efficacy Based on Geometric Means Day 21 [4, 6]: 99.7%
Sheep Body Lice Efficacy Based on Geometric Means Day 41/42 [4, 6]: 100.0%
Sheep Body Lice Efficacy Based on Geometric Means Day 84 [4, 6]: 100.0%
Sheep Body Lice Efficacy Based on Geometric Means Day 140 [4, 6]: 100.0%
Sheep Body Lice Efficacy Based on Geometric Means Day 7 [4, 7]: 94.4%
Sheep Body Lice Efficacy Based on Geometric Means Day 14 [4, 7]: 99.5%
Sheep Body Lice Efficacy Based on Geometric Means Day 21 [4, 7]: 100.0%
Sheep Body Lice Efficacy Based on Geometric Means Day 41/42 [4, 7]: 100.0%
Sheep Body Lice Efficacy Based on Geometric Means Day 84 [4, 7]: 100.0%
Sheep Body Lice Efficacy Based on Geometric Means Day 140 [4, 7]: 100.0%
Sheep Body Lice Efficacy Based on Geometric Means Day 7 [4, 8]: 39.5%
Sheep Body Lice Efficacy Based on Geometric Means Day 14 [4, 8]: 83.1%
Sheep Body Lice Efficacy Based on Geometric Means Day 21 [4, 8]: 98.8%
Sheep Body Lice Efficacy Based on Geometric Means Day 41/42 [4, 8]: 99.9%
Sheep Body Lice Efficacy Based on Geometric Means Day 84 [4, 8]: 100.0%
Sheep Body Lice Efficacy Based on Geometric Means Day 140 [4, 8]: 100.0%
time until efficacy reached the required level (no lice detected) ([4]; 2.0 mg/kg dose rate, all wool lengths except off-shears): ≤ 14 days post-treatment
Sheep Body Lice Efficacy Based on Geometric Means Day 7 [4, 9]: 96.7%
Sheep Body Lice Efficacy Based on Geometric Means Day 14 [4, 9]: 100.0%
Sheep Body Lice Efficacy Based on Geometric Means Day 21 [4, 9]: 100.0%
Sheep Body Lice Efficacy Based on Geometric Means Day 41/42 [4, 9]: 100.0%
Sheep Body Lice Efficacy Based on Geometric Means Day 84 [4, 9]: 100.0%
Sheep Body Lice Efficacy Based on Geometric Means Day 140 [4, 9]: 100.0%
Sheep Body Lice Efficacy Based on Geometric Means Day 7 [4, 10]: 96.8%
Sheep Body Lice Efficacy Based on Geometric Means Day 14 [4, 10]: 100.0%
Sheep Body Lice Efficacy Based on Geometric Means Day 21 [4, 10]: 100.0%
Sheep Body Lice Efficacy Based on Geometric Means Day 41/42 [4, 10]: 100.0%
Sheep Body Lice Efficacy Based on Geometric Means Day 84 [4, 10]: 100.0%
Sheep Body Lice Efficacy Based on Geometric Means Day 140 [4, 10]: 100.0%
Sheep Body Lice Efficacy Based on Geometric Means Day 7 [4, 11]: 86.6%
Sheep Body Lice Efficacy Based on Geometric Means Day 14 [4, 11]: 97.1%
Sheep Body Lice Efficacy Based on Geometric Means Day 21 [4, 11]: 99.2%
Sheep Body Lice Efficacy Based on Geometric Means Day 41/42 [4, 11]: 99.4%
Sheep Body Lice Efficacy Based on Geometric Means Day 84 [4, 11]: 99.9%
Sheep Body Lice Efficacy Based on Geometric Means Day 140 [4, 11]: 100.0%
viable lice eggs ([4]; 1 and 2 mg/kg, all three treatment times, out to 140 days post-treatment): no viable lice eggs were detected
efficacy against the biting lice B. bovis ([5]; Day 7): 91.74%
efficacy against the biting lice B. bovis ([5]; by Day 14): 100%
lice found on treated cattle ([5]; from Day 21 until Day 56): no lice of any species found
